Test results reported in patent US9169217B2, “Arylalkyl esters of 4-amino-6-(substituted phenyl)-picolinates and 6-amino-2-(substituted phenyl)-pyrimidinecarboxylates and their use as selective herbicides for crops” (Dow AgroSciences LLC, priority 2011, dated 2015).

Columns and labels:
[1] = tested on: Leptochloa chinensis (L.) NEES (Chinese sprangletop); test: In-water applied herbicidal activity in transplanted paddy rice (Example 17); format: in vivo; details: LEFCH, probit analysis; for GR50: 50% growth reduction; for GR80: 80% growth reduction; for GR90: 90% growth reduction
Method in brief: (§1)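 Ester forms of test compounds, in acetone diluted with aqueous Agri-dex (final 1.25% v/v crop oil concentrate), were injected into the flood water of paddy pots holding weeds or rice at the 2nd–3rd leaf stage in mud (pH ~7.3–7.8). Visual injury versus untreated plants was scored 0–100% after 3 weeks in greenhouse (~29/26 °C). GR50/GR80 were derived by probit analysis.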

[2] = tested on: Cyperus rotundus L. (purple nutsedge); test: as above; format: in vivo; details: rice cropping systems, 35 g ae/ha, 21 DAA, may represent multiple trials
Method in brief: as §1

[3] = tested on: Solidago L. spec (Goldenrod); test: Postemergence herbicidal activity in pastures (Example 15); format: in vivo; details: pasture cropping systems, postemergence spray, 35 DAA
Procedure: (§2) Seeds of the desired test plant species were planted in Sun Gro Metro-Mix® 360 planting mixture, which typically has a pH of 6.0 to 6.8 and an organic matter content of about 30 percent, in plastic pots with a surface area of 139.7 cm^2. When required to ensure good germination and healthy plants, a fungicide treatment and/or other chemical or physical treatment was applied. The plants were grown with an approximate 14 h photoperiod which was maintained at about 24° C. during the day and 21° C. during the night. Nutrients and water were added on a regular basis and supplemental lighting was provided with overhead metal halide 1000-Watt lamps as necessary. The plants were employed for testing when they reached the four or six true leaf stage, depending on species.
(§3) Treatments consisted of esters of compounds 39 and G. Compound G is methyl 4-amino-3-chloro-6-(4-chloro-2-fluoro-3-methoxyphenyl)picolinate. A weighed amount, determined by the highest rate to be tested, of each test compound was placed in a 25 mL glass vial and was dissolved in 8 mL of a 97:3 v/v mixture of acetone and DMSO to obtain concentrated stock solutions. […] The concentrated stock solutions obtained were diluted with 16 mL of an aqueous mixture containing acetone, water, isopropyl alcohol, DMSO, Agri-dex crop oil concentrate, and Triton® X-77 surfactant in a 64.7:26.0:6.7:2.0:0.7:0.01 v/v ratio to obtain spray solutions containing the highest application rates. Additional application rates were obtained by serial dilution of 12 mL of the high rate solution into a solution containing 4 mL of a 97:3 v/v mixture of acetone and DMSO and 8 mL of an aqueous mixture containing acetone, water, isopropyl alcohol, DMSO, Agri-dex crop oil concentrate, and Triton® X-77 surfactant in a 48.5:39.0:10.0:1.5:1.0:0.02 v/v ratio to obtain ½×, ¼×, ⅛× and 1/16× rates of the high rate. Compound requirements are based upon a 12 mL application volume at a rate of 187 L/ha. Formulated compounds were applied to the plant material with an overhead Mandel track sprayer equipped with 8002E nozzles calibrated to deliver 187 L/ha over an application area of 0.503 m^2 at a spray height of 18 inches (43 cm) above average plant canopy height. Control plants were sprayed in the same manner with the blank.
(§4) The treated plants and control plants were placed in a greenhouse as described above and watered by sub-irrigation to prevent wash-off of the test compounds. After 35 d, the condition of the test plants as compared with that of the untreated plants was determined visually and scored on a scale of 0 to 100 percent where 0 corresponds to no injury and 100 corresponds to complete kill.

[4] = tested on: Cirsium arvense (Thistle, Canada); test: as above; format: in vivo; details: pasture cropping systems, postemergence spray, 35 DAA
Procedure: as §2, §3, §4

With `COc1c(Cl)ccc(-c2nc(C(=O)OCc3ccccc3)c(Cl)c(N)c2F)c1F` [Compound 1, benzyl 4-amino-3-chloro-6-(4-chloro-2-fluoro-3-methoxyphenyl)-5-fluoropicolinate] the GR50 [1] was 50.4 g ae/ha, the GR80 [1] was 78.6 g ae/ha and the GR90 [1] was 99.1 g ae/ha.
For `COc1c(Cl)ccc(-c2cc(N)c(Cl)c(C(=O)OCc3ccccc3)n2)c1F` [Compound 39], the “Visual Injury (%) CYPRO” value [2] was 80%, the “Visual Injury (%) SOOSS” value ([3]; 70 g ae/ha) was 85% and the “Visual Injury (%) SOOSS” value ([3]; 140 g ae/ha) was 100%. The “Visual Injury (%) CIRAR” value ([4]; 17.5 g ae/ha) was 100%, the “Visual Injury (%) CIRAR” value ([4]; 35 g ae/ha) was 95% and the melting point was 90 to 91.5 °C.
For `COC(=O)c1nc(-c2ccc(C3CC3)cc2)c(F)c(N)c1Cl` [Compound B, methyl 4-amino-3-chloro-6-(4-cyclopropylphenyl)-5-fluoropicolinate], the melting point was 116 to 119 °C.
In the case of `COC(=O)c1nc(-c2ccc(Cl)c(OC)c2F)cc(N)c1Cl` [Compound G, methyl 4-amino-3-chloro-6-(4-chloro-2-fluoro-3-methoxyphenyl)picolinate, reference compound], the “Visual Injury (%) CYPRO” value [2] is reported as 47%, the “Visual Injury (%) SOOSS” value ([3]; 70 g ae/ha) is reported as 30% and the “Visual Injury (%) SOOSS” value ([3]; 140 g ae/ha) is reported as 50%. The “Visual Injury (%) CIRAR” value ([4]; 17.5 g ae/ha) was 40% and the “Visual Injury (%) CIRAR” value ([4]; 35 g ae/ha) was 60%.
Compound `COC(=O)c1nc(-c2ccc(Cl)c(OC)c2F)c(F)c(N)c1Cl` [E, methyl 4-amino-3-chloro-6-(4-chloro-2-fluoro-3-methoxyphenyl)-5-fluoropicolinate, reference compound] has a GR50 [1] of 59.9 g ae/ha, a GR80 [1] of 99.4 g ae/ha and a GR90 [1] of 130.0 g ae/ha.
